Laboratory results reported in publication PMC4392179 (Nature medicine, 2015).

Assays:
K+ efflux = assay: Intracellular K+ by ICP-OES in BMDM; assay type: cell-based, mouse; conditions: LPS primed BMDM, MCC950 10–300 nM
[1] = Stability with mouse liver microsomes
CYP 3A4 = CYP 3A4 (Homo sapiens, UniProt P08684); assay: CYP inhibition in human liver microsomes, substrate cocktail; conditions: 10 µM
NLRC4 = NLRC4 (Mus musculus, UniProt Q3UP24); assay: NLRC4 inflammasome activation: BMDM stimulated with LPS and S. typhimurium; assay type: cell-based; conditions: for NLRC4-stimulated IL-1β secretion / NLRC4-stimulated TNF-α secretion / expression of pro-IL-1β (and pro-caspase-1) in cell lysates: LPS and S. typhimurium; for NLRC4-stimulated IL-1β secretion / NLRC4-stimulated TNF-α secretion: MCC950 up to 10 µM, parthenolide 10 µM
NLRC4, sequence (Q3UP24 whole entry): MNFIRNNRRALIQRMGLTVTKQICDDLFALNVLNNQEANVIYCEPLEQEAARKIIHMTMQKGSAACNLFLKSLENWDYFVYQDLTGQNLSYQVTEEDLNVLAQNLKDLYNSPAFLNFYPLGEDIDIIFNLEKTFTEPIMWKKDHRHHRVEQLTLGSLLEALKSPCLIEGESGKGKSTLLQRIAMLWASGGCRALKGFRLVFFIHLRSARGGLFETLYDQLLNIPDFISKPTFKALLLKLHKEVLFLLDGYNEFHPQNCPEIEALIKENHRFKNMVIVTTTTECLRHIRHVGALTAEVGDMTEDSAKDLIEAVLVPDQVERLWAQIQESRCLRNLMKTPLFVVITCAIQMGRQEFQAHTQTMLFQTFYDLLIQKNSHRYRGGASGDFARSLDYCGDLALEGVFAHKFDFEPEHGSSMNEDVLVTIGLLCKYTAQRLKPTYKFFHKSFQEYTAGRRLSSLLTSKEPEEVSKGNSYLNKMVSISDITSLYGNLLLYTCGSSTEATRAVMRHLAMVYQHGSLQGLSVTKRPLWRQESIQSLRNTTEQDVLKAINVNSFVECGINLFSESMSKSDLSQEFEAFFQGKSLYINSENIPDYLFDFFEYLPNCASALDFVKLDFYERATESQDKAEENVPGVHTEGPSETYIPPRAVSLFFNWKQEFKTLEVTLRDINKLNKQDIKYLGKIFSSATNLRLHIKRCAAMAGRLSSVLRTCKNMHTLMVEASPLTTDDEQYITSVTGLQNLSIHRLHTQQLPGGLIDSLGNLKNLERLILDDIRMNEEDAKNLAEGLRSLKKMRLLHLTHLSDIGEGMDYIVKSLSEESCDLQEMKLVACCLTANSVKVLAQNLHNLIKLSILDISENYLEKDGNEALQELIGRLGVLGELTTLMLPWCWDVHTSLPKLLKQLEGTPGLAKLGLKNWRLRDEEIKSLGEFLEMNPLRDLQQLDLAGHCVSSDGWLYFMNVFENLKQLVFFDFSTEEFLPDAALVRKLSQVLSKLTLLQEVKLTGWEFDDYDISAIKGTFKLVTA

NLRP1 [2] = assay: Nlrp1a Q593P activating mutation mice; assay type: in vivo; conditions: NLRP1 mutant mice, 20 mg/kg i.p. every second day for 9 days; P = 0.7
AIM2 inflammasome = biological target: T1, AIM2 inflammasome (Mus musculus, UniProt Q91VJ1); assay: AIM2 inflammasome activation: BMDM stimulated with LPS and transfected Poly; assay type: cell-based
T1 sequence (Q91VJ1 1-354): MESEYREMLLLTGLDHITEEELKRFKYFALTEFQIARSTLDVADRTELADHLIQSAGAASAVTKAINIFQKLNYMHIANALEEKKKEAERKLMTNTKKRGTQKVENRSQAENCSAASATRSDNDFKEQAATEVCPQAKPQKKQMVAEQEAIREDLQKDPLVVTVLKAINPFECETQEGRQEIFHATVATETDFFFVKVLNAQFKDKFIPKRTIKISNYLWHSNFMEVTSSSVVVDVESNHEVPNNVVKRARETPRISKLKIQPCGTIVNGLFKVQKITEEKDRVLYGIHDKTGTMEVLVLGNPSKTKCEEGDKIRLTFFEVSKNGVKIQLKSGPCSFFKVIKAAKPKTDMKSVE

[3] = biological target: human ether-a-go-go (hERG) potassium channel (Homo sapiens, UniProt Q12809); assay: cell-based
human ether-a-go-go (hERG) potassium channel, sequence (Q12809 whole entry): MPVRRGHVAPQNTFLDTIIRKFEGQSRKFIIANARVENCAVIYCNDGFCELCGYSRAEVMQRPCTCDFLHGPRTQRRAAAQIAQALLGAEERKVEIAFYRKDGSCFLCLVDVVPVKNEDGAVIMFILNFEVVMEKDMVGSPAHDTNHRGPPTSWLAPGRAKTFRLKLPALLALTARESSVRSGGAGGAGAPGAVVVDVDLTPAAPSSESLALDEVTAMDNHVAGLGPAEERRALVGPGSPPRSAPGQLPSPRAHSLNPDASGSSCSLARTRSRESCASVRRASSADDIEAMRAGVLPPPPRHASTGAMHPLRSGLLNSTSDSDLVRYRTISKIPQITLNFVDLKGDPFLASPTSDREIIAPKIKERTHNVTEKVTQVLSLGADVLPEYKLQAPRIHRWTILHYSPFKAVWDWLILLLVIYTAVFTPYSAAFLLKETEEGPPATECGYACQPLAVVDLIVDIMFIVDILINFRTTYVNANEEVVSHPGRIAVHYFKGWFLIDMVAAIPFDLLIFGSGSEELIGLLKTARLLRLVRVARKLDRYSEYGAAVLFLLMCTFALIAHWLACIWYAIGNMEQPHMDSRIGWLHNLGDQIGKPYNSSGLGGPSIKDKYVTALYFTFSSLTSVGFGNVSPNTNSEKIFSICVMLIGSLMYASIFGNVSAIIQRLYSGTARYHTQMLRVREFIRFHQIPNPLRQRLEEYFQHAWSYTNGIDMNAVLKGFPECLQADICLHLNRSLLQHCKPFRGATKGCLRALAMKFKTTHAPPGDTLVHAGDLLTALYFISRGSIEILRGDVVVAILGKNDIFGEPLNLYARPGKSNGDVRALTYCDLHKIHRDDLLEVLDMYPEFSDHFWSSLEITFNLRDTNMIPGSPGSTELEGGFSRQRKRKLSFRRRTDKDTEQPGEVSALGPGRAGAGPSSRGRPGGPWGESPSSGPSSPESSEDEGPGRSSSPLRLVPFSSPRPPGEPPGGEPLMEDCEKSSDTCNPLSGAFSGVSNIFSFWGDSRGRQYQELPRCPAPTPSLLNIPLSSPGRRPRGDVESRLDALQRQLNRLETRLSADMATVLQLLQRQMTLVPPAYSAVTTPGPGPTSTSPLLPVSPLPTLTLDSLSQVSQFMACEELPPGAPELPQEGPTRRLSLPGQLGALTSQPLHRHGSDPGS

NLRP1 [4] = assay type: cell-based
TLR signalling = assay: Priming / TLR signalling: BMDM pre-treated and stimulated with LPS or Poly; assay type: cell-based, mouse; conditions: for LPS-induced (TLR4) TNF-α secretion / Poly(A:U)-induced (TLR3) TNF-α secretion: BMDM, ELISA
EAE = assay: Experimental autoimmune encephalomyelitis; assay type: in vivo, C57BL/6 mice
CYP 2D6 = CYP 2D6 (Homo sapiens, UniProt P10635); assay: CYP inhibition in human liver microsomes, substrate cocktail; conditions: 10 µM
CYP 2D6, sequence (P10635 whole entry): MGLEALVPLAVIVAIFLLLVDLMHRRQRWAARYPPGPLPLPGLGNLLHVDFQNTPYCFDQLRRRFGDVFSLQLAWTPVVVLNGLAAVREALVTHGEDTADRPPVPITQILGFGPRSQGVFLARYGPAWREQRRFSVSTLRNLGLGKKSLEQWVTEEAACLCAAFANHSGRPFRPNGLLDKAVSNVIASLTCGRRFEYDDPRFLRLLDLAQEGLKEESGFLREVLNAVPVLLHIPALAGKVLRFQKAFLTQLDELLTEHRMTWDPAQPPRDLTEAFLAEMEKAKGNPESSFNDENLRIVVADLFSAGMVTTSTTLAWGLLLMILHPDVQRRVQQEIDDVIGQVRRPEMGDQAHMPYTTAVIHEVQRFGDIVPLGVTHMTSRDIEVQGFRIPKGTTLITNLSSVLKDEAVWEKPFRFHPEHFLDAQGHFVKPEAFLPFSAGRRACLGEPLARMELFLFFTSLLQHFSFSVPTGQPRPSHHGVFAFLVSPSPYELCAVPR

[5] = Stability with human liver microsomes
CYP 1A2 = biological target: T2, CYP 1A2 (Homo sapiens, UniProt P05177); assay: CYP inhibition in human liver microsomes, substrate cocktail; conditions: 10 µM
T2 sequence (P05177 1-516): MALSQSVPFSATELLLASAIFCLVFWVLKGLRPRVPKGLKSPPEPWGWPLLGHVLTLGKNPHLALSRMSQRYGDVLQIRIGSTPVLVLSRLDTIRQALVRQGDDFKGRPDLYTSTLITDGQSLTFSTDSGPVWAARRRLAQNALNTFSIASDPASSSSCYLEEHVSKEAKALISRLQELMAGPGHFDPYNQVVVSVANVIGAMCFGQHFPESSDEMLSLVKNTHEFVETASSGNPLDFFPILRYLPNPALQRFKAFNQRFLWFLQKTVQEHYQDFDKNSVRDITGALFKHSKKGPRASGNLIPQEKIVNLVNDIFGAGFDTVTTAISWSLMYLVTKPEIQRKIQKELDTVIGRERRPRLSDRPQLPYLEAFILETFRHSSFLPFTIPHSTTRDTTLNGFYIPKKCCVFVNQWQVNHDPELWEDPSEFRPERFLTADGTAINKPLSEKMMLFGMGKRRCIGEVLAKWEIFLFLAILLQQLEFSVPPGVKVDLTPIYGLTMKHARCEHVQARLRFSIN

Ca2+ flux = assay: ATP induced Ca2+ flux in BMDM; conditions: WT or Ice−/− BMDM
CYP 2C9 = CYP 2C9 (Homo sapiens, UniProt P11712); assay: CYP inhibition in human liver microsomes, substrate cocktail; conditions: 10 µM
CYP 2C9, sequence (P11712 whole entry): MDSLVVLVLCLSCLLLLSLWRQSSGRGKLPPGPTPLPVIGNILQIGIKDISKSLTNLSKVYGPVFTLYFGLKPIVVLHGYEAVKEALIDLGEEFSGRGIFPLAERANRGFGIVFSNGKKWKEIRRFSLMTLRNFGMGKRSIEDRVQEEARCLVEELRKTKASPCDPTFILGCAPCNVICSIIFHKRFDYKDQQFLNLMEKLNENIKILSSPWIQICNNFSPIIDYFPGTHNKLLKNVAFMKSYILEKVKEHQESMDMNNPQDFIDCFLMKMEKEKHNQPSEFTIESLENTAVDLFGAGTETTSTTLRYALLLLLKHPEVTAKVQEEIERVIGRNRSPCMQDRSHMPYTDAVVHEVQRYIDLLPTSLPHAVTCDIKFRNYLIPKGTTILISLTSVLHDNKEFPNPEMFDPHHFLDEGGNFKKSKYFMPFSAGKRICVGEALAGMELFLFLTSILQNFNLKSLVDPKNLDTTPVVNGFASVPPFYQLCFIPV

CYP 2C19 = CYP 2C19 (Homo sapiens, UniProt P33261); assay: as above; conditions: 10 µM
CYP 2C19, sequence (P33261 whole entry): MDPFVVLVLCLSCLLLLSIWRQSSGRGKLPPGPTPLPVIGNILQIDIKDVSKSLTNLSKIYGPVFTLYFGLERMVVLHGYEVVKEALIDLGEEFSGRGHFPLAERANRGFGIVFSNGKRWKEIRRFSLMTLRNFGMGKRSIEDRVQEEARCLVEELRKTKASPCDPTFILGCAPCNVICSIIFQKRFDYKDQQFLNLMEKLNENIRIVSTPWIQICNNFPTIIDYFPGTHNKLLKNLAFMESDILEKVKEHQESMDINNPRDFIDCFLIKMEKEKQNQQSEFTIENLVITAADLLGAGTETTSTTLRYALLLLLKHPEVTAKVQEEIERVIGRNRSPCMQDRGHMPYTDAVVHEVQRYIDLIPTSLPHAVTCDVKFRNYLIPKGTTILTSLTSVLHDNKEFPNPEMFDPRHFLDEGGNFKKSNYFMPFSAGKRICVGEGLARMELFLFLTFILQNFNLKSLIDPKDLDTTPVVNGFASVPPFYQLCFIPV

Aqueous solubility = assay type: physicochemical; conditions: sodium salt
[6] = LPS and Poly(dA:dT), Bayer compound 40 µM

CYP 3A4, sequence (P08684 whole entry): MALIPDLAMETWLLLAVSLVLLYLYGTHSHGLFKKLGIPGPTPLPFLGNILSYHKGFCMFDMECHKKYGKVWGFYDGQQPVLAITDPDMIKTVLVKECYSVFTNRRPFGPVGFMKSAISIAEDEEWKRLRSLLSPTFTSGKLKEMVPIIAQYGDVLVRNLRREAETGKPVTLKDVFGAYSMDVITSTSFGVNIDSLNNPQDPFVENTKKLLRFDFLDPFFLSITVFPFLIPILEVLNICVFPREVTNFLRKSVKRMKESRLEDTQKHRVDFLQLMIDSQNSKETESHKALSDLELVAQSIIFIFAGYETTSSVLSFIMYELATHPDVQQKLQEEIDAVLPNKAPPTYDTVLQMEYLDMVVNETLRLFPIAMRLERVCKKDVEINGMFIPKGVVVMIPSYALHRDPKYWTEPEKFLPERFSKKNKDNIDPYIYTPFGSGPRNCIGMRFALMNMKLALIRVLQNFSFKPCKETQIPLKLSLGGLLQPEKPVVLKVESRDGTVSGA

Q: Which results are given for `CC(C)(O)c1coc(S(=O)(=O)NC(=O)Nc2c3c(cc4c2CCC4)CCC3)c1` [MCC950, 1-(1,2,3,5,6,7-hexahydro-s-indacen-4-yl)-3-[4-(1-hydroxy-1-methyl-ethyl)-furan-2-sulfonyl]urea]?
A: K+ efflux triggered by nigericin, ATP and SiO2 (K+ efflux): did not prevent; compound remaining after 60 min [1]: more than 70%; inhibition of CYP 3A4 (CYP 3A4): less than 15%; NLRC4-stimulated IL-1β secretion (NLRC4): not inhibited; NLRC4-stimulated TNF-α secretion (NLRC4): not inhibited; expression of pro-IL-1β (and pro-caspase-1) in cell lysates (NLRC4; Western blot): not substantially affected; caspase-1 activation / IL-1β processing in response to S. typhimurium (NLRC4; Western blot): did not inhibit; serum concentrations of IL-18 (NLRP1 [2]): did not significantly alter; IL-1β secretion (AIM2 inflammasome; [6]): did not attenuate; TNF-α secretion (AIM2 inflammasome; [6]): did not attenuate; IC50 [3]: > 30 µM; ASC speck formation (NLRP1 [4]): not decreased; LPS stimulated induction of NLRP3 and pro-IL-1β (TLR signalling; BMDM pre-treated, LPS 4 h, Western blot): not affected; LPS-induced (TLR4) TNF-α secretion (TLR signalling): did not affect; Poly(A:U)-induced (TLR3) TNF-α secretion (TLR signalling): did not affect; EAE onset and severity (clinical scores) (EAE; 10 mg/kg i.p. day 0, 1, 2 and every 2 days thereafter): delayed the onset and reduced the severity; frequencies of IL-17 and IFN-γ producing CD3+ T cells in brain mononuclear cells (EAE; day 22, vs PBS-treated mice): modestly reduced; inhibition of CYP 2D6 (CYP 2D6): less than 15%; compound remaining after 60 min [5]: more than 70%; inhibition of CYP 1A2 (CYP 1A2): less than 15%; ATP induced increase in intracellular Ca2+ (Ca2+ flux): did not substantially affect; inhibition of CYP 2C9 (CYP 2C9): less than 15%; inhibition of CYP 2C19 (CYP 2C19): less than 15%

Q: Which “solubility in aqueous solutions” value (Aqueous solubility) does the source give for `CC(C)(O)c1coc(S(=O)(=O)[N-]C(=O)Nc2c3c(cc4c2CCC4)CCC3)c1.[Na+]` [MCC950 sodium salt] here?
A: The value was “highly soluble”.

Q: For `O=C(O)c1ccc(OCCCc2ccc(OCCCC3CCCCC3)cc2)c(C(=O)N2CCC(C(=O)O)CC2)c1` [Bayer compound, 1-(5-carboxy-2{3-[4-(3-cyclohexylpropoxy)phenyl]propoxy}benzoyl)piperidine-4-carboxylic acid, reference compound], which IL-1β secretion (AIM2 inflammasome; [6]) is on record?
A: Its IL-1β secretion is “inhibited”.

Q: And the “Poly(dA:dT) stimulated caspase-1 activation” value (AIM2 inflammasome; Western blot)?
A: Its value is “inhibited”.

Q: For `C=C1C(=O)O[C@H]2[C@H]1CC/C(C)=C/CC[C@@]1(C)O[C@@H]21` [parthenolide, reference compound], which “NLRC4-stimulated IL-1β secretion” value (NLRC4) is on record?
A: Its value is “attenuated”.

Q: What about the “NLRC4-stimulated TNF-α secretion” value (NLRC4) of the same molecule?
A: Its value is “attenuated”.

Q: And the “expression of pro-IL-1β (and pro-caspase-1) in cell lysates” value (NLRC4; Western blot)?
A: Its value is “attenuated”.

Q: And the “LPS-induced (TLR4) TNF-α secretion” value (TLR signalling)?
A: The value was “abrogated”.

Q: What about the “Poly(A:U)-induced (TLR3) TNF-α secretion” value (TLR signalling) of the same molecule?
A: The value was “abrogated”.
